Reference: PubChem BioAssay (NCI)
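How tested: cells in 96-well plates exposed to compound for 48 hours at five concentrations. GI50 = concentration required for 50% inhibition of growth. TGI denotes the concentration required for complete inhibition of growth.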

How the values were obtained:
Assay in all cases: DTP human tumour cell line panel, 48 h
KM12 colon = tested on: KM12 colon
COLO 205 colon = tested on: COLO 205 colon
LXFL 529 NSCLC = tested on: LXFL 529 NSCLC
NCI-H226 lung = tested on: NCI-H226 lung
HCT-116 colon = tested on: HCT-116 colon
U251 CNS = tested on: U251 CNS
SF-539 CNS = tested on: SF-539 CNS
RPMI-8226 leukemia = tested on: RPMI-8226 leukemia
HCT-15 colon = tested on: HCT-15 colon
UO-31 renal = tested on: UO-31 renal
HT29 colon = tested on: HT29 colon
KM20L2 colon = tested on: KM20L2 colon
EKVX NSCLC = tested on: EKVX NSCLC
OVCAR-8 ovarian = tested on: OVCAR-8 ovarian
CAKI-1 renal = tested on: CAKI-1 renal
SF-295 CNS = tested on: SF-295 CNS
NCI-H460 lung = tested on: NCI-H460 lung
SK-OV-3 ovarian = tested on: SK-OV-3 ovarian
HOP-62 NSCLC = tested on: HOP-62 NSCLC
SNB-19 CNS = tested on: SNB-19 CNS
SK-MEL-28 melanoma = tested on: SK-MEL-28 melanoma
A549 NSCLC = tested on: A549 NSCLC
SN12C renal = tested on: SN12C renal
LOX IMVI melanoma = tested on: LOX IMVI melanoma
OVCAR-4 ovarian = tested on: OVCAR-4 ovarian
DLD-1 colon = tested on: DLD-1 colon
NCI-H23 lung = tested on: NCI-H23 lung
786-0 renal = tested on: 786-0 renal
SW-620 colon = tested on: SW-620 colon
MOLT-4 leukemia = tested on: MOLT-4 leukemia
CCRF-CEM leukemia = tested on: CCRF-CEM leukemia
OVCAR-3 ovarian = tested on: OVCAR-3 ovarian
SK-MEL-5 melanoma = tested on: SK-MEL-5 melanoma
UACC-62 melanoma = tested on: UACC-62 melanoma
HOP-18 NSCLC = tested on: HOP-18 NSCLC
K-562 leukemia = tested on: K-562 leukemia
SK-MEL-2 melanoma = tested on: SK-MEL-2 melanoma
HOP-92 NSCLC = tested on: HOP-92 NSCLC
SF-268 CNS = tested on: SF-268 CNS
IGROV1 ovarian = tested on: IGROV1 ovarian
SNB-75 CNS = tested on: SNB-75 CNS
RXF 393 renal = tested on: RXF 393 renal
HL-60(TB) leukemia = tested on: HL-60(TB) leukemia
HCC-2998 colon = tested on: HCC-2998 colon
MALME-3M melanoma = tested on: MALME-3M melanoma
NCI-H522 lung = tested on: NCI-H522 lung
A498 renal = tested on: A498 renal
ACHN renal = tested on: ACHN renal
M14 melanoma = tested on: M14 melanoma
OVCAR-5 ovarian = tested on: OVCAR-5 ovarian

Compound: CC(=O)[CH-]C(=O)c1ccccc1.CC(=O)[CH-]C(=O)c1ccccc1.CC[O-].CC[O-].[Hf+4]
- GI50 (KM12 colon): > 100 µM
- TGI (KM12 colon): > 100 µM
- GI50 (COLO 205 colon): > 100 µM
- TGI (COLO 205 colon): > 100 µM
- GI50 (LXFL 529 NSCLC): > 100 µM
- TGI (LXFL 529 NSCLC): > 100 µM
- GI50 (NCI-H226 lung): > 100 µM
- TGI (NCI-H226 lung): > 100 µM
- GI50 (HCT-116 colon): > 100 µM
- TGI (HCT-116 colon): > 100 µM
- GI50 (U251 CNS): > 100 µM
- TGI (U251 CNS): > 100 µM
- GI50 (SF-539 CNS): > 100 µM
- TGI (SF-539 CNS): > 100 µM
- GI50 (RPMI-8226 leukemia): > 100 µM
- TGI (RPMI-8226 leukemia): > 100 µM
- GI50 (HCT-15 colon): > 100 µM
- TGI (HCT-15 colon): > 100 µM
- GI50 (UO-31 renal): > 100 µM
- TGI (UO-31 renal): > 100 µM
- GI50 (HT29 colon): > 100 µM
- TGI (HT29 colon): > 100 µM
- GI50 (KM20L2 colon): > 100 µM
- TGI (KM20L2 colon): > 100 µM
- GI50 (EKVX NSCLC): 38.2 µM
- TGI (EKVX NSCLC): > 100 µM
- GI50 (OVCAR-8 ovarian): > 100 µM
- TGI (OVCAR-8 ovarian): > 100 µM
- GI50 (CAKI-1 renal): > 100 µM
- TGI (CAKI-1 renal): > 100 µM
- GI50 (SF-295 CNS): > 100 µM
- TGI (SF-295 CNS): > 100 µM
- GI50 (NCI-H460 lung): > 100 µM
- TGI (NCI-H460 lung): > 100 µM
- GI50 (SK-OV-3 ovarian): > 100 µM
- TGI (SK-OV-3 ovarian): > 100 µM
- GI50 (HOP-62 NSCLC): > 100 µM
- TGI (HOP-62 NSCLC): > 100 µM
- GI50 (SNB-19 CNS): > 100 µM
- TGI (SNB-19 CNS): > 100 µM
- GI50 (SK-MEL-28 melanoma): > 100 µM
- TGI (SK-MEL-28 melanoma): > 100 µM
- GI50 (A549 NSCLC): > 100 µM
- TGI (A549 NSCLC): > 100 µM
- GI50 (SN12C renal): > 100 µM
- TGI (SN12C renal): > 100 µM
- GI50 (LOX IMVI melanoma): > 100 µM
- TGI (LOX IMVI melanoma): > 100 µM
- GI50 (OVCAR-4 ovarian): > 100 µM
- TGI (OVCAR-4 ovarian): > 100 µM
- GI50 (DLD-1 colon): > 100 µM
- TGI (DLD-1 colon): > 100 µM
- GI50 (NCI-H23 lung): > 100 µM
- TGI (NCI-H23 lung): > 100 µM
- GI50 (786-0 renal): > 100 µM
- TGI (786-0 renal): > 100 µM
- GI50 (SW-620 colon): > 100 µM
- TGI (SW-620 colon): > 100 µM
- GI50 (MOLT-4 leukemia): > 100 µM
- TGI (MOLT-4 leukemia): > 100 µM
- GI50 (CCRF-CEM leukemia): 69.1 µM
- TGI (CCRF-CEM leukemia): > 100 µM
- GI50 (OVCAR-3 ovarian): > 100 µM
- TGI (OVCAR-3 ovarian): > 100 µM
- GI50 (SK-MEL-5 melanoma): > 100 µM
- TGI (SK-MEL-5 melanoma): > 100 µM
- GI50 (UACC-62 melanoma): > 100 µM
- TGI (UACC-62 melanoma): > 100 µM
- GI50 (HOP-18 NSCLC): > 100 µM
- TGI (HOP-18 NSCLC): > 100 µM
- GI50 (K-562 leukemia): > 100 µM
- TGI (K-562 leukemia): > 100 µM
- GI50 (SK-MEL-2 melanoma): > 100 µM
- TGI (SK-MEL-2 melanoma): > 100 µM
- GI50 (HOP-92 NSCLC): 36.8 µM
- TGI (HOP-92 NSCLC): > 100 µM
- GI50 (SF-268 CNS): > 100 µM
- TGI (SF-268 CNS): > 100 µM
- GI50 (IGROV1 ovarian): > 100 µM
- TGI (IGROV1 ovarian): > 100 µM
- GI50 (SNB-75 CNS): > 100 µM
- TGI (SNB-75 CNS): > 100 µM
- GI50 (RXF 393 renal): > 100 µM
- TGI (RXF 393 renal): > 100 µM
- GI50 (HL-60(TB) leukemia): > 100 µM
- TGI (HL-60(TB) leukemia): > 100 µM
- GI50 (HCC-2998 colon): > 100 µM
- TGI (HCC-2998 colon): > 100 µM
- GI50 (MALME-3M melanoma): > 100 µM
- TGI (MALME-3M melanoma): > 100 µM
- GI50 (NCI-H522 lung): > 100 µM
- TGI (NCI-H522 lung): > 100 µM
- GI50 (A498 renal): > 100 µM
- TGI (A498 renal): > 100 µM
- GI50 (ACHN renal): > 100 µM
- TGI (ACHN renal): > 100 µM
- GI50 (M14 melanoma): > 100 µM
- TGI (M14 melanoma): > 100 µM
- GI50 (OVCAR-5 ovarian): > 100 µM
- TGI (OVCAR-5 ovarian): > 100 µM
